Measured values published in publication PMC5154303, “Flavonol and imidazole derivatives block HPV16 E6 activities and reactivate apoptotic pathways in HPV^+ cells” (Cell Death & Disease, 2016).

Experiments:
Format in all cases: cell-based, human
[1] = tested on: UPCI-SCC90-UP-Clone 35; test: TRAIL-induced cell death in HPV+ HNSCC line UPCI-SCC90-UP-Clone 35 (MTT); settings: HPV+ #90, 40 μM compound 4 h, 50 ng/ml TRAIL + cycloheximide
Protocol: (§1) Figure 7 Myricetin and spinacine (5) can re-sensitize HPV^+, but not HPV^−, head and neck cancer cell lines to treatment with TRAIL. (a) Both HPV^− and HPV^+ HN cancer cell lines display resistance to TRAIL treatment. (b) HPV^− (UMSCC 29 and SCC 84) and (c) HPV^+ (UMSCC 47, UPCI-SCC90-UP-Clone 35, and UM-SCC47-TC-Clone 3) head and neck cancer cell lines (2 × 10^4 cells per well) were seeded into 96-well plates and allowed to incubate overnight, and then cells were pretreated with myricetin (0–200 μM) or spinacine (0–100 μM) for 4 h. […] Cell viability was measured by the MTT assay, and the viability of cells untreated with small molecules was set at 100%. Experiments were performed in triplicate, and error bars indicate the S.D.
(§2) The extracellular domain of human TRAIL was cloned into a pTriEx expression plasmid containing N-terminal Hisx6 tag. His-TRAIL was expressed in the E. coli BL-21 pLys strain and purified as previously described. Doxorubicin and cisplatin were purchased from Sigma. His-TRAIL, doxorubicin, and cisplatin were diluted in PBS to the desired concentration before using. […] All experiments were repeated at least three times (three biological replicates, carried out on different days), with each experimental group measured in triplicate within each of these individual experiments. […]

[2] = tested on: p53; test: p53 ELISA in C33A cells; settings: C33A cells (HPV−, mutant p53), with 4 μg/ml mitomycin C, 24 h
Protocol: Figure 6 Treatment with myricetin and spinacine (5) increases cellular levels of caspase 8 and p53. (a) SiHa cells (1 × 10^6 per well) were seeded into a six-well plate and allowed to incubate overnight. The indicated concentrations of myricetin and spinacine were added, and then cells were incubated for 24 h. Cells were then washed in 1 × PBS and then harvested, and the resulting level of caspase 8 was measured by immunoblot. (b) SiHa and C33A cells (1 × 10^6 per well) were seeded into a six-well plate and allowed to incubate overnight. In all, 200 μM of myricetin and 100 μM spinacine were added together with 4 μg/ml mitomycin C and incubated for 24 h. The resulting level of p53 was measured by enzyme-linked immunosorbent assay, and the level of p53 found in untreated cells was set at 100%. Experiments were performed in triplicate, and error bars indicate the S.D.
The p53 ELISA was performed as described previously,[26] with some modifications. Antibodies secreted by clone pAb122 (hybridoma obtained from ATCC, antibodies purified from the culture medium using protein-A Sepharose) were used as monoclonal capture antibodies. […] The average and S.D. of the replicates (a minimum of three) were calculated, normalized to the control, and used to prepare the graph.

[3] = tested on: SCC 84; test: Sensitization to doxorubicin in HPV− HNSCC line SCC 84 (MTT); settings: HPV− #84, compound 0–12.5 μM, 2 μM doxorubicin
Protocol: Figure 8 Myricetin and spinacine (5) can re-sensitize HPV^+, but not HPV^−, HNSCC cell lines to treatment with doxorubicin. Two HPV^− (UMMSCC 29 and SCC 84) and three HPV^+ (UMSCC 47, UPCI-SCC90-UP-Clone 35, and UM-SCC47-TC Clone 3) head and neck cancer cell lines (2 × 10^4 cells per well) were seeded into 96-well plates and allowed to incubate overnight, and then cells were pretreated with myricetin or spinacine (0–12.5 μM) for 4 h. In all, 2 μM of doxorubicin was added, and the cells were allowed to incubate overnight. Cell viability was measured by MTT assay, and the viability of cells untreated with small molecules was set at 100%. Experiments were performed in triplicate, and error bars indicate the S.D.
as §2

[4] = tested on: UM-SCC47-TC-Clone 3; test: TRAIL-induced cell death in HPV+ HNSCC line UM-SCC47-TC-Clone 3 (MTT); settings: HPV+ 47CL3, 40 μM compound 4 h, 50 ng/ml TRAIL + cycloheximide
Protocol: as §1, §2

Structure (SMILES): O=c1c(O)c(-c2cc(O)c(O)c(O)c2)oc2cc(O)cc(O)c12 [Myricetin, myricetin, reference compound]
- enhancement of TRAIL-induced cell death [1]: 30%
- change in p53 levels ([2]; 200 μM): no significant change
- response to doxorubicin in presence and absence of compound [3]: resistant
- enhancement of TRAIL-induced cell death [4]: 70%

Structure (SMILES): O=C(O)C1Cc2[nH]cnc2CN1 (centres unmarked) [Spinacine (5), 4,5,6,7-tetrahydro-1H-imidazo[4,5–c]pyridine-6-carboxylic acid]
- enhancement of TRAIL-induced cell death [1]: up to 50%
- change in p53 levels ([2]; 100 μM): no significant change
- response to doxorubicin in presence and absence of compound [3]: resistant
- enhancement of TRAIL-induced cell death [4]: ~60%
